Measured values published in patent US6486173B2, “5-HT7 receptor antagonists” (Bristol-Myers Squibb Pharma Company, priority 1998, dated 2002).
Like-named read-outs stand apart in the source and are kept apart here.

How the values were obtained:
[1] = molecular target: 5-HT7 receptor (Homo sapiens, UniProt P34969); conditions: cited from earlier work
[2] = background statement, profile consistent across species

5-HT7 receptor, sequence (P34969 whole entry): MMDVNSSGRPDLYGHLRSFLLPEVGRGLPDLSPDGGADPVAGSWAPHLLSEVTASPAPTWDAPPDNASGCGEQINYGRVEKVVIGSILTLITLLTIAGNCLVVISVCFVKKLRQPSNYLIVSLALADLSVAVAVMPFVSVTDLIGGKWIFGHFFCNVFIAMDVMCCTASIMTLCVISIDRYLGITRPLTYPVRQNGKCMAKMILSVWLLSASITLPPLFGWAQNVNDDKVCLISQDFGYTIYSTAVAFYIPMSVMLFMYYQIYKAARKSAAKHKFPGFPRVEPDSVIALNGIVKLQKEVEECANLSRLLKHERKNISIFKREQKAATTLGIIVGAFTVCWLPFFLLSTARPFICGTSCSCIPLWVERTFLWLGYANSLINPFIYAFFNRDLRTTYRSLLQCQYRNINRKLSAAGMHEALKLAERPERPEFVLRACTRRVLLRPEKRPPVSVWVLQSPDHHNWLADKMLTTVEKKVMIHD

Compound | melting point | other results
Fc1ccc(OCCCN2Cc3ccccc3C2)cc1.O=C(O)/C=C\C(=O)O | 115 to 117 °C | 
O=C(CCCN1Cc2cccc3cccc(c23)C1)c1ccc(F)cc1.O=C(O)/C=C\C(=O)O | 151 to 155 °C | 
CNS(=O)(=O)Cc1ccc2[nH]cc(CCN(C)C)c2c1 [sumatriptan] |  | 5-HT7 receptor affinity [1, 2]: low affinity
O=C(CCCN1CCc2ccccc2C1)c1ccc(F)cc1.O=C(O)/C=C\C(=O)O | 129 to 130 °C | 
COc1cc2c(cc1OC)CN(CCCC(=O)c1ccc(F)cc1)CC2.O=C(O)/C=C\C(=O)O | 144 to 146 °C | 
Cc1ccc(C2(CCCN3Cc4ccccc4C3)OCCO2)cc1.O=C(O)/C=C\C(=O)O | 159 to 161 °C (dec.) | 
O=C(CCCN1CCc2ccccc2C1)c1ccncc1.O=C(O)/C=C\C(=O)O | 108 to 109 °C | 
CCCN(CCC)C1CCc2cccc(O)c2C1 (stereo not drawn) [Example 8-OHDPAT, 8-OHDPAT] |  | 5-HT7 receptor affinity [1]: moderate affinity
O=C(CCCN1CC[C@@H]2CCCC[C@H]2C1)c1ccc(F)cc1.O=C(O)/C=C\C(=O)O (racemic) | 157 to 158 °C | 
O=C1CC2(CCCC2)CC(=O)N1CCCCN1CCN(c2ncccn2)CC1 [buspirone] |  | 5-HT7 receptor affinity [1, 2]: low affinity
Fc1ccc(C2(CCCN3CCc4ccccc4C3)OCCO2)cc1.O=C(O)/C=C\C(=O)O | 160 to 162 °C | 
Fc1ccc(C2(CCCN3Cc4ccccc4C3)OCCO2)cc1.O=C(O)/C=C\C(=O)O | 141 to 142 °C | 
Cc1nc2sccn2c(=O)c1CCN1CCC(=C(c2ccc(F)cc2)c2ccc(F)cc2)CC1 [ritanserin] |  | 5-HT7 receptor affinity [1, 2]: moderate affinity
COc1ccc2[nH]cc(CCN)c2c1 [Example 5-MeOT, 5-MeOT] |  | 5-HT7 receptor affinity [1]: high 5-HT7 receptor affinity
Cl.O=S(=O)(CCCN1CCc2ccccc2C1)c1ccc(F)cc1 | 212 to 215 °C | 
Cl.O=S(=O)(c1ccc(F)cc1)N1CCC(N2CCc3ccccc3C2)CC1 | > 240 °C | 
O=C(O)/C=C\C(=O)O.O=S(=O)(CCCN1Cc2ccccc2C1)c1ccc(F)cc1 | 151 to 152 °C | 
Cl.Fc1ccc(SCCCN2CCc3ccccc3C2)cc1 | 171 to 173 °C | 
O=C(CCCN1Cc2cc3ccccc3cc2C1)c1ccc(F)cc1.O=C(O)/C=C\C(=O)O | 157 to 158 °C | 
Cl.Fc1ccc(SCCCN2Cc3ccccc3C2)cc1 | 125 to 126 °C | 
Fc1ccc(C2=NOC(CN3CCc4ccccc4C3)C2)cc1.O=C(O)/C=C\C(=O)O (racemic) | 153 to 155 °C | 
O=C(CCCN1CCc2ccccc2C1)c1cccs1.O=C(O)/C=C\C(=O)O | 154 to 155 °C | 
O=C(O)/C=C\C(=O)O.O=c1[nH]c2ccccc2n1CCCN1CCc2ccccc2C1 | 153 to 154 °C | 
CC(C)NCC(O)COc1cccc2[nH]ccc12 (stereo not drawn) [pindolol] |  | 5-HT7 receptor affinity [1]: low affinity
O=C(O)/C=C\C(=O)O.OC(CCCN1Cc2ccccc2C1)c1ccc(F)cc1 (stereo not drawn) | 113 to 114 °C | 
5-HT [Example 5-HT] |  | 5-HT7 receptor affinity [1, 2]: high 5-HT7 receptor affinity
O=C(O)/C=C\C(=O)O.c1ccc(-c2cc(CN3CCc4ccccc4C3)on2)cc1 | 190 to 192 °C | 
